Data reported in patent US11214803B2, “Modulators of YAP1 expression” (Ionis Pharmaceuticals, Inc., priority 2019, dated 2022).
Strand notation (5' to 3'): a small letter for the sugar, then the base; units joined by * are phosphorothioate-linked, units joined directly phosphodiester-linked; [ ] holds rarer units or linkages, { } end groups; capitals alone tell only the bases. k = constrained ethyl (cEt); [5mC] = 5-methylcytosine; d = 2'-deoxy (DNA)

Assays:
Yap1 mRNA [1] = assay: Inhibition of human Yap1 mRNA in SNU449 hepatocellular carcinoma xenograft tumors (Example 26); assay type: in vivo; conditions: SNU449 xenografts in NSG mice, 50 mg/kg twice weekly for five days, relative to PBS treated animals
Procedure, shortened: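 Female NSG mice bearing subcutaneous SNU449 xenografts (about 100 mm^3) dosed with modified oligonucleotides at 50 mg/kg twice weekly for five days, four per group. Tumour Yap1 mRNA measured by RT-qPCR, normalized to actin-beta, expressed as % of PBS-treated controls.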

Yap1 mRNA [2] = assay: Yap1 mRNA in SCC25 cells, RNA analysis (Example 25); assay type: cell-based, human; conditions: free uptake, 48 hours, RTS4814, normalized to actin-beta
Protocol: (§1) Modified oligonucleotides described in the studies above were tested at various doses in squamous cell carcinoma cell SCC25. A control oligonucleotide 792169 (a 3-10-3 cET gapmer with a full phosphorothioate backbone, […], designated herein as SEQ ID No.: 2940; is not complementary to any known human gene) was also tested.
Cultured SCC25 cells at a density of 5,000 cells per well were treated using free uptake with modified oligonucleotides diluted to concentrations described in the tables below. After approximately 48 hours, Yap1 mRNA levels were measured as previously described using the Human Yap1 primer-probe set RTS4814. Yap1 mRNA levels were normalized to actin-beta content, as measured by primer probe set RTS5002 (forward sequence […], designated herein as SEQ ID NO.: 20; reverse sequence […], designated herein as SEQ ID NO.: 21; probe sequence […], designated herein as SEQ ID NO.: 22). Results are presented in the tables below as percent control of the amount of Yap1 mRNA relative to untreated control cells (% UTC).

[3] = Cynomolgus monkey tolerability, hematology (Example 34); assay type: in vivo, cynomolgus monkeys; conditions: for BAS / EOS / HCT / HGB / LUC / LYM / MCH / MCHC / MCV / MON / NEU / PLT / RBC / RCDW / Retic / WBC: cynomolgus monkey, in vivo, sc, 35 mg/kg; for MPV: cynomolgus monkeys, 35 mg/kg subcutaneously, day 44
Protocol: To evaluate any effect of Ionis oligonucleotides in cynomolgus monkeys on hematologic parameters, blood samples of approximately 0.5 mL of blood was collected from each of the available study animals on day 44. The samples were collected in tubes containing K2-EDTA. Samples were analyzed for red blood cell (RBC) count, Hemoglobin (HGB), Hematocrit (HCT), Mean corpuscular volume (MCV), mean corpuscular hemoglobin (MCH), mean corpuscular hemoglobin concentration (MCHC), RBC Distribution Width (RCDW), reticulocyte count (Retic), platelet count (PLT), mean platelet volume (MPV), white blood cells (WBC) count, individual white blood cell counts, such as that of monocytes (MON), neutrophils (NEU), lymphocytes (LYM), eosinophils (EOS), basophils (BAS), and large unstained cells (LUC) using an ADVIA2120i hematology analyzer (Siemens, USA).

[4] = Cynomolgus monkey tolerability, body and organ weight measurements (Example 34); assay type: in vivo; conditions: cynomolgus monkeys, 35 mg/kg subcutaneously; for Heart weight / Kidney weight / Liver with gallbladder weight / Spleen weight: necropsy; for Terminal Body Weight: prior to necropsy
Protocol: Cynomolgus monkeys were treated with Ionis modified oligonucleotides selected from studies described in the Examples above. Modified oligonucleotide tolerability was evaluated.
During the study period, the monkeys were observed twice daily for signs of illness or distress. Any animal experiencing more than momentary or slight pain or distress due to the treatment, injury or illness was treated by the veterinary staff with approved analgesics or agents to relieve the pain after consultation with the Study Director. Any animal in poor health or in a possible moribund condition was identified for further monitoring and possible euthanasia. Scheduled euthanasia of the animals was conducted on day 86 approximately 48 hours after the last dose by exsanguination while under deep anesthesia. The protocols described in the Example were approved by the Institutional Animal Care and Use Committee (IACUC).
To evaluate the effect of Ionis oligonucleotides on the overall health of the animals, body and organ weights were measured. Terminal body weight was measured prior to necropsy.

SCC25 cells = assay: Cell proliferation assay in SCC25 cells, CellTiter-Glo (Example 25); assay type: cell-based, human; conditions: free uptake, 144 hours
Protocol: as §1
Cultured SCC25 cells at a density of 1,000 cells/well were treated using free uptake with modified oligonucleotides diluted to concentrations described in the tables below. After approximately 144 hours, cell proliferation was measured using the luminescent cell viability CellTiter-Glo® 2.0 Assay (Promega). Results are presented in the tables below as percent control of the amount of luminescence in samples treated with modified oligonucleotides relative to untreated control cells (% UTC).

[5] = Cynomolgus monkey tolerability, kidney and liver function markers (Example 34); conditions: cynomolgus monkeys, 35 mg/kg subcutaneously, day 44
Protocol: Prior to the study, the monkeys were kept in quarantine during which the animals were observed daily for general health. The monkeys were 2-4 years old and weighed 2-4 kg. Eleven groups of 4 randomly assigned male cynomolgus monkeys each were injected subcutaneously with Ionis oligonucleotide or saline in a clock-wise rotation between four different sites on the back. Following loading doses on days 1, 3, 5 and 7, the monkeys were dosed once per week (on days 14, 21, 28, 35, and 42) with 35 mg/kg of Ionis oligonucleotide.
To evaluate the effect of Ionis oligonucleotides on hepatic and kidney function, blood samples were collected from all the study groups on day 44. The monkeys were fasted overnight prior to blood collection. Blood was collected in tubes without anticoagulant for serum separation. The tubes were kept at room temperature for a minimum of 90 minutes and then centrifuged at 3000 rpm for 10 minutes to obtain serum. Levels of various liver function markers were measured using a Toshiba 200FR NEO chemistry analyzer (Toshiba Co., Japan).

715487 (kA*kT*kT*dA*d[5mC]*dT*dT*d[5mC]*dA*dT*dA*dG*d[5mC]*kT*kT*kA) [compound 715487]
Yap1 mRNA in tumors, % control (Yap1 mRNA [1]): 61 % control

958499 (ATTAGAGTATGTGGCA; 3-10-3 cEt gapmer, further chemistry not given here) [compound 958499]
Yap1 mRNA, % UTC (Yap1 mRNA [2]; 0.04 μM): 47 % UTC | Yap1 mRNA, % UTC (Yap1 mRNA [2]; 0.2 μM): 22 % UTC | Yap1 mRNA, % UTC (Yap1 mRNA [2]; 1 μM): 10 % UTC | Yap1 mRNA, % UTC (Yap1 mRNA [2]; 5 μM): 4 % UTC | BAS [3]: 0.4% | EOS [3]: 1.1% | HCT [3]: 43% | HGB [3]: 12 g/dL | LUC [3]: 1.2% | LYM [3]: 44% | MCH [3]: 22 pg | MCHC [3]: 29 g/dL | MCV [3]: 77 fL | MON [3]: 3.5% | NEU [3]: 49% | PLT [3]: 399 10^3/μL | RBC [3]: 5.6e+06 µL⁻¹ | RCDW [3]: 12% | Retic [3]: 1.5% | WBC [3]: 12000 µL⁻¹ | MPV [3]: 7.6 fL | Heart weight [4]: 10 g | Kidney weight [4]: 15 g | Liver with gallbladder weight [4]: 68 g | Spleen weight [4]: 4 g | Terminal Body Weight [4]: 2894 g | Yap1 mRNA in tumors, % control (Yap1 mRNA [1]): 54 % control | cell proliferation (luminescence) % UTC (SCC25 cells; 0.04 μM): 76 % UTC | cell proliferation (luminescence) % UTC (SCC25 cells; 0.2 μM): 42 % UTC | cell proliferation (luminescence) % UTC (SCC25 cells; 1 μM): 25 % UTC | cell proliferation (luminescence) % UTC (SCC25 cells; 5 μM): 14 % UTC | ALB [5]: 4.0 g/dL | ALP [5]: 1449 IU/L | ALT [5]: 67 IU/L | AST [5]: 73 IU/L | BUN [5]: 24 mg/dL | CREA [5]: 0.9 mg/dL | GGT [5]: 67 IU/L | GLO [5]: 3.2 g/dL | GLU [5]: 83 mg/dL | HDL [5]: 89 mg/dL | LDL [5]: 46 mg/dL | TBIL [5]: 0.2 mg/dL | TG [5]: 41 mg/dL | TP [5]: 7.2 g/dL

1076453 (GTAATATTGCAATCTG; 3-10-3 cEt gapmer, further chemistry not given here) [compound 1076453]
Yap1 mRNA, % UTC (Yap1 mRNA [2]; 0.04 μM): 59 % UTC | Yap1 mRNA, % UTC (Yap1 mRNA [2]; 0.2 μM): 21 % UTC | Yap1 mRNA, % UTC (Yap1 mRNA [2]; 1 μM): 7 % UTC | Yap1 mRNA, % UTC (Yap1 mRNA [2]; 5 μM): 3 % UTC | BAS [3]: 0.4% | EOS [3]: 1.1% | HCT [3]: 43% | HGB [3]: 13 g/dL | LUC [3]: 1.2% | LYM [3]: 54% | MCH [3]: 23 pg | MCHC [3]: 29 g/dL | MCV [3]: 79 fL | MON [3]: 3.9% | NEU [3]: 39% | PLT [3]: 358 10^3/μL | RBC [3]: 5.5e+06 µL⁻¹ | RCDW [3]: 15% | Retic [3]: 1.2% | WBC [3]: 10000 µL⁻¹ | MPV [3]: 8.4 fL | Heart weight [4]: 11 g | Kidney weight [4]: 16 g | Liver with gallbladder weight [4]: 72 g | Spleen weight [4]: 5 g | Terminal Body Weight [4]: 2955 g | Yap1 mRNA in tumors, % control (Yap1 mRNA [1]): 56 % control | cell proliferation (luminescence) % UTC (SCC25 cells; 0.04 μM): 81 % UTC | cell proliferation (luminescence) % UTC (SCC25 cells; 0.2 μM): 40 % UTC | cell proliferation (luminescence) % UTC (SCC25 cells; 1 μM): 23 % UTC | cell proliferation (luminescence) % UTC (SCC25 cells; 5 μM): 15 % UTC | ALB [5]: 3.9 g/dL | ALP [5]: 1173 IU/L | ALT [5]: 53 IU/L | AST [5]: 76 IU/L | BUN [5]: 27 mg/dL | CREA [5]: 0.9 mg/dL | GGT [5]: 78 IU/L | GLO [5]: 3.1 g/dL | GLU [5]: 89 mg/dL | HDL [5]: 98 mg/dL | LDL [5]: 66 mg/dL | TBIL [5]: 0.2 mg/dL | TG [5]: 29 mg/dL | TP [5]: 7.0 g/dL

CGCCGATAAGGTACAC (cEt gapmer, phosphorothioate backbone, further chemistry not given here) [ION 792169, reference compound]
Yap1 mRNA, % UTC (Yap1 mRNA [2]; 0.04 μM): 96 % UTC | Yap1 mRNA, % UTC (Yap1 mRNA [2]; 0.2 μM): 89 % UTC | Yap1 mRNA, % UTC (Yap1 mRNA [2]; 1 μM): 93 % UTC | Yap1 mRNA, % UTC (Yap1 mRNA [2]; 5 μM): 98 % UTC | cell proliferation (luminescence) % UTC (SCC25 cells; 0.04 μM): 103 % UTC | cell proliferation (luminescence) % UTC (SCC25 cells; 0.2 μM): 104 % UTC | cell proliferation (luminescence) % UTC (SCC25 cells; 1 μM): 100 % UTC | cell proliferation (luminescence) % UTC (SCC25 cells; 5 μM): 88 % UTC
